Measurements reported in PubChem BioAssay (NCI).
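These data come from cells grown in 96-well plates and exposed to compound for 48 hours at five concentrations. TGI denotes the concentration required for complete inhibition of growth.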

Experiments:
Assay in all cases: inhibition of tumour cell growth, NCI panel, 48 h
[1] = test system: SW-620 colon
[2] = test system: HCT-15 colon
[3] = test system: RPMI-8226 leukemia
[4] = test system: OVCAR-3 ovarian
[5] = test system: IGROV1 ovarian
[6] = test system: DMS 114 small cell lung
[7] = test system: LOX IMVI melanoma
[8] = test system: XF 498 CNS
[9] = test system: COLO 205 colon
[10] = test system: SK-MEL-5 melanoma
[11] = test system: LXFL 529 NSCLC
[12] = test system: M14 melanoma
[13] = test system: A549 NSCLC
[14] = test system: ACHN renal
[15] = test system: TK-10 renal
[16] = test system: RXF 393 renal
[17] = test system: SF-539 CNS
[18] = test system: NCI-H23 lung
[19] = test system: OVCAR-8 ovarian
[20] = test system: DMS 273 small cell lung
[21] = test system: MALME-3M melanoma
[22] = test system: K-562 leukemia
[23] = test system: NCI-H226 lung
[24] = test system: U251 CNS
[25] = test system: EKVX NSCLC
[26] = test system: SK-OV-3 ovarian
[27] = test system: HL-60(TB) leukemia
[28] = test system: SF-268 CNS
[29] = test system: UACC-257 melanoma
[30] = test system: SK-MEL-28 melanoma
[31] = test system: KM12 colon
[32] = test system: CCRF-CEM leukemia
[33] = test system: MOLT-4 leukemia
[34] = test system: NCI-H460 lung
[35] = test system: HT29 colon
[36] = test system: NCI-H522 lung
[37] = test system: HOP-62 NSCLC
[38] = test system: SNB-19 CNS
[39] = test system: SN12C renal
[40] = test system: 786-0 renal
[41] = test system: SR leukemia
[42] = test system: HCT-116 colon
[43] = test system: UO-31 renal
[44] = test system: M19-MEL melanoma
[45] = test system: KM20L2 colon
[46] = test system: SF-295 CNS
[47] = test system: HCC-2998 colon
[48] = test system: OVCAR-5 ovarian
[49] = test system: SK-MEL-2 melanoma
[50] = test system: UACC-62 melanoma
[51] = test system: CAKI-1 renal
[52] = test system: SNB-78 CNS
[53] = test system: OVCAR-4 ovarian
[54] = test system: A498 renal
[55] = test system: SNB-75 CNS

Measured: TGI

O=C1CCC2(CCC(=O)NC2=O)C(=O)N1
> 100 µM: [1] | [2] | [3] | [4] | [5] | [6] | [7] | [8] | [9] | [10] | [11] | [12] | [13] | [14] | [15] | [16] | [17] | [18] | [19] | [20] | [21] | [22] | [23] | [24] | [25] | [26] | [27] | [28] | [29] | [30] | [31] | [32] | [33] | [34] | [35] | [36] | [37] | [38] | [39] | [40] | [41] | [42] | [43] | [44] | [45] | [46] | [47]

COC(=O)c1c(C)oc2ccc(OC(C)=O)cc12
> 100 µM: [1] | [2] | [48] | [3] | [4] | [5] | [6] | [7] | [9] | [10] | [12] | [49] | [13] | [50] | [14] | [15] | [16] | [17] | [18] | [51] | [19] | [20] | [21] | [22] | [23] | [24] | [25] | [26] | [27] | [28] | [29] | [30] | [31] | [32] | [33] | [52] | [34] | [53] | [54] | [35] | [36] | [37] | [38] | [39] | [40] | [41] | [42] | [55] | [43] | [44] | [45] | [46] | [47]
